Results published in US11078496B2, “System for F-box hormone receptor regulated protein expression in mammalian cells” (ICAHN SCHOOL OF MEDICINE AT MOUNT SINAI, priority 2016, dated 2021).

Legend:
[1] = test system: dnMAML1-NLS-GFP-OsJAZ^33 (dnM1-GFP-J); test: Coronatine-dependent degradation of dnM1-GFP-J in hESCs (fluorescence microscopy); format: cell-based, human; conditions: hESCs harboring pRAIDRS NICD-A and pJAZ dnM1-GFP-J, 50 μM coronatine, 1 day
Protocol: FIGS. 14A-14C illustrate a dual switch for dissection of NOTCH1 function in hESCs. H9 hESCs were infected with pRAIDRS harboring an shRNA targeting the full-length NOTCH1 receptor and an NICD-AID^47 CDS (“NICD-A”). As a control, cells were infected with pRAIDRS NLS-GFP-AID^47 (“GFP-A”). Cells were maintained with 250 μM auxin to prevent NICD-A accumulation. Following selection and isolation of colonies with ESC morphology, cells were infected with pJAZ dnMAML1-NLS-GFP-OsJAZ^33 (“dnM1-GFP-J”) or pJAZ NLS-GFP-OsJAZ^33 (“GFP-J”) as control and post-selection colonies were expanded. FIG. 14A is a western blot analysis of pRAIDRS GFP-A and NICD-A hESCs maintained in the presence of 250 μM auxin (“IAA”), washed and incubated for 4 h in the presence (+) or absence (−) of auxin. […] Dashed lines mark colony borders. […] Dashed lines indicate instances where coronatine-mediated dnM1-GFP-J degradation restored NICD-A-dependent activity by at least twofold. […] See also FIGS. 13A-13E and 15.
In mice, NOTCH was also implicated in trophectoderm formation (Rayon et al., “Notch and Hippo Converge on Cdx2 to Specify the Trophectoderm Lineage in the Mouse Blastocyst,” Dev. Cell 30:410-422 (2014), which is hereby incorporated by reference in its entirety). […]

[2] = test system: aphidicolin-treated mESCs; test: Mitotic entry after auxin in aphidicolin-treated A-CHK1 mESCs (mitotic index, flow cytometry); format: cell-based, mouse; conditions: A-CHK1 mESCs pretreated with aphidicolin for 1 day
Protocol: FIG. 5A is a western blot analysis depicting endogenous CHK1 (*) and AID^47-CHK1 (A-CHK1, **) in four selected clones and in parental non-infected mESCs. […] serves as a loading control. Experiment was repeated three times for clones #1 and #2, and a representative blot is presented. In FIG. 5B, A-CHK1 #2 mESCs were treated with ethanol (“Con”) or auxin (“IAA”) for 1 day. Cells were then treated with the indicated concentrations of aphidicolin (“Aph”). Equal concentrations of DMSO were applied to all conditions. The next day, cells were stained with crystal violet and plates were scanned. […] Left panel: mitotic index was calculated as the percentage of H3^pS10-positive cells with 4N DNA content, measured by flow cytometry. […] Tyr15 phosphorylation of CDK1 (“CDKlpY^15”) was detected using a phospho-specific antibody. β-Actin serves as a loading control. […]
Flow cytometry was performed on a BD LSRII machine. For GFP and mOrange fluorescence analysis, cells were trypsinized, neutralized with FBS-containing media, supplemented with […] DAPI and kept on ice. […] GFP and mOrange fluorescence intensities were detected using the fluorescein isothiocyanate (“FITC”) and DsRed channels, respectively. Background autofluorescence was measured using parental noninfected cells. […] To calculate % degradation, relative median fluorescence was subtracted from 1. […]

Row | SMILES | degradation of dnM1-GFP-J [1] | time of synchronous mitotic entry post-auxin treatment [2]
1 | CC[C@H]1C=C(C(=O)N[C@@]2(C(=O)O)C[C@@H]2CC)[C@H]2CCC(=O)[C@H]2C1 [coronatine, Coronatine] | effectively induced degradation | 
2 | O=C(O)Cc1c[nH]c2ccccc12 [auxin, indole-3-acetic acid] |  | 45 to 90 min
